Experiments:
[1] = system: Peripheral blood lymphocytes; experiment: Ceramide in anti-Fas antibody stimulated peripheral blood lymphocytes (DAG kinase assay); type: cell-based; details: for Ceramide: 30 min at 37° C., then anti-Fas antibody 30 min, Control 20, Control + anti-Fas antibody 81.6; for Effect on synthesis of ceramide in vitro: anti-Fas stimulated lymphocytes
Text: (§1) Ceramide levels can be directly measured by isolating peripheral blood lymphocytes from the patient. Thereafter the cells are centrifuged to eliminate the supernatant, and the lipids are removed from the cell pellet. The organic phase containing the ceramide can be assayed using the “DAG kinase assay” for phosphorylating the ceramide which is then evidenced by autoradiography [Cifone, M. G. et al., J. Exp. Med., 180(4): 1547-52].
Peripheral blood lymphocytes were isolated according to the classical methodologies. The cells were incubated with L-carnitine (200 mcg/ml) or with isovaleryl L-carnitine for 30 min at 37° C., and afterwards with an anti-Fas monoclonal antibody for another 30 min. The cells were then centrifuged, eleminating the supernatant, and the cell pellet was delipidized. The organic phase (containing the ceramide) was assayed in the “DAG kinase assay” for phosphorylating ceramide which subsequently was evidenced by autoradiography.
It is known that the cells suitably stimulated (i.e. with Fas-L, inter-leukin-1, etc.) generate ceramide. An anti-Fas antibody was employed to increase the production of ceramide from a basal value (20 picomoles per 10^6 cells) to 81.6 picomoles per 10^6 cells.

[2] = system: lymphocyte-associated ceramide; experiment: Lymphocyte-associated ceramide in hyperthyroidism patients treated with metimazole; type: in vivo, human; details: 8 g per day oral, 4 weeks
Text: Ceramide levels can be directly measured by isolating peripheral blood lymphocytes from the patient. Thereafter the cells are centrifuged to eliminate the supernatant, and the lipids are removed from the cell pellet. The organic phase containing the ceramide can be assayed using the “DAG kinase assay” for phosphorylating the ceramide which is then evidenced by autoradiography [Cifone, M. G. et al., J. Exp. Med., 180(4): 1547-52]. Four patients affected by hyperthyroidism who had been treated with metimazole (15 mg by oral route, daily) for more than eight months, were treated for 4 weeks with 8 g per day L-carnitine by oral route. The lymphocyte-associated ceramide was determinded before and after the treatment.

[3] = system: peripheral blood lymphocyte-associated ceramide; experiment: Peripheral blood lymphocyte-associated ceramide in patients with protein catabolism and lipidic depletion from tubercular infection; type: in vivo, human; details: 8 g per day parenteral, two weeks
Text: as §1
Four patients affected by protein catabolism and lipidic depletion as a consequence of tubercular infection were treated for two weeks with 8 g per day L-carnitine by parenteral route.
The peripheral blood lymphocyte-associated ceramide was determined before and after the treatment.

[4] = system: Ceramide in the muscles; experiment: Muscle ceramide in patients with symptomatic neuro-myopathy (chronic fatigue syndrome); type: in vivo, human; details: 3 g per day oral, two months
Experimental: Two patients affected by symptomatic neuro-myopathy (chronic fatigue syndrome) were treated with 3 g per clay of L-carnitine by oral route through two months. Ceramide was measured in the muscles before and after the administration.

[5] = system: lymphocyte-associated ceramide; experiment: Lymphocyte-associated ceramide in patients with hepato-splenomegaly due to viral hepatitis of C type; type: in vivo, human; details: 4 g bolus intravenous
Text: Ceramide levels can be directly measured by isolating peripheral blood lymphocytes from the patient. Thereafter the cells are centrifuged to eliminate the supernatant, and the lipids are removed from the cell pellet. The organic phase containing the ceramide can be assayed using the “DAG kinase assay” for phosphorylating the ceramide which is then evidenced by autoradiography [Cifone, M. G. et al., J. Exp. Med., 180(4): 1547-52]. Three patients with hepato-splenomegaly due to viral hepatitis of C type were treated with 4 g of L-carnitine bolus by intravenous route. The lymphocyte-associated ceramide was determined before and after 3 and 48 hours following the infusion.

## CC(C)CC(=O)O[C@H](CC(=O)[O-])C[N+](C)(C)C [isovaleryl L-carnitine]
[1]; 50 mcg/ml
  Ceramide: 8.6 picomoles per 10^6 cells
[1]; 100 mcg/ml
  Ceramide: 7.3 picomoles per 10^6 cells
[1]
  Effect on synthesis of ceramide in vitro: inhibit the synthesis of ceramide in vitro

## C[N+](C)(C)C[C@H](O)CC(=O)[O-] [L-carnitine]
[1]; 100 mcg/ml
  Ceramide: 7.3 picomoles per 10^6 cells
[1]
  Effect on synthesis of ceramide in vitro: inhibit the synthesis of ceramide in vitro
[2]; Patient 1, pre-treatment 73
  Ceramide post-treatment: 26 picomoles/10^6 cells
[2]; Patient 2, pre-treatment 45
  Ceramide post-treatment: 27 picomoles/10^6 cells
[2]; Patient 3, pre-treatment 111
  Ceramide post-treatment: 36 picomoles/10^6 cells
[2]; Patient 4, pre-treatment 69
  Ceramide post-treatment: 18 picomoles/10^6 cells
[3]; Patient 1, pre-treatment 127
  Ceramide post-treatment: 59 picomoles/10^6 cells
[3]; Patient 2, pre-treatment 265
  Ceramide post-treatment: 77 picomoles/10^6 cells
[3]; Patient 3, pre-treatment 301
  Ceramide post-treatment: 152 picomoles/10^6 cells
[3]; Patient 4, pre-treatment 78
  Ceramide post-treatment: 54 picomoles/10^6 cells
[4]; Patient 1, pre-treatment 76
  Ceramide post-treatment: 28 picomoles per mg of proteins
[4]; Patient 2, pre-treatment 142
  Ceramide post-treatment: 46 picomoles per mg of proteins
[5]
  Duration of the effect on ceramide levels: remains at least for two days
[5]; after 3 hours from the infusion
  Effect of bolus on ceramide levels: inhibited the increase of ceramide levels already after 3 hours
[5]; Patient 1, pre-treatment 65
  Ceramide After 3 hrs: 12 picomoles/10^6 cells
  Ceramide After 48 hrs: 31 picomoles/10^6 cells
[5]; Patient 2, pre-treatment 77
  Ceramide After 3 hrs: 32 picomoles/10^6 cells
  Ceramide After 48 hrs: 21 picomoles/10^6 cells
[5]; Patient 3, pre-treatment 79
  Ceramide After 3 hrs: 24 picomoles/10^6 cells
  Ceramide After 48 hrs: 23 picomoles/10^6 cells
